According to publication PMC11036650, “Different Modes of Mechanism of Gamma-Mangostin and Alpha-Mangostin to Inhibit Cell Migration of Triple-Negative Breast Cancer Cells Concerning CXCR4 Downregulation and ROS Generation” (Iranian Journal of Pharmaceutical Research : IJPR, 2023):
Read-outs that look alike come from different tables or passages of the source.

Assays:
Type in all cases: cell-based, human
[1] = system: MDA-MB-231 cells; test: Intracellular ROS level measurement (DCFDA, flow cytometry); conditions: for ROS accumulation: 10 µM
Method: The MDA-MB-231 cells were collected in a buffer with 10% FBS in phosphate-buffered saline (PBS) and transferred in a sterile light-blocking microtube before being stained with 20 µM of 2’,7’-dichlorofluorescein diacetate (DCFDA) (Sigma #D6883, USA) and incubated for 30 minutes. Later, γ-mangostin and α-mangostin were added to the cell suspensions and incubated in a 37 °C incubator (with 5% CO2) before analyzing by a flow cytometer (Calibur) at indicated times (4, 8, 18, and 24 hours). 2’,7’-dichlorofluorescein diacetate reacted with the hydroxyl radicals (·OH) and transformed into fluorescent 2,7-dichlorofluorescein (DCF). The fluorescence intensity of DCF based on 5,000 cells per gate was calculated using the flow cytometer ([29], [30]). In a separate experiment, the cells already stained with DCFDA were treated with 5 mM N-acetyl-L-cysteine (NAC) (Wako #017-05131, Japan) and incubated for an hour before the treatment with γ-mangostin and α-mangostin for the next 24 hours, and the ROS level was subsequently measured. The assay was carried out in triplicate.

[2] = system: MDA-MB-231 cells; test: Cell viability assay (CCK-8); conditions: MDA-MB-231 cells, 24 hours, CCK-8 assay, triplicate ± SD
Method: (§1) The MDA-MB-231 breast cancer cells were cultured in an L-15 medium, enriched with 15% fetal bovine serum (FBS) (Gibco, USA) and 1% penicillin-streptomycin (Gibco, USA), and incubated in CO2-free 37°C incubator.
(§2) The compounds γ-mangostin (#M6824) and α-mangostin (#M3824) were purchased from Sigma-Aldrich (USA). A suspension of cells (20,000 cells/well in 100 μL) was cultured in a 96-well plate. After an initial 24-hour incubation, γ-mangostin or α-mangostin of varying concentrations (1 - 100 μM) was added to the plate, followed by another 24-hour incubation. A solution of Cell Counting Kit-8 (CCK-8) (Dojindo #347-07621, Japan) was added to each well, and the plate was incubated for 2 hours. The absorbance was subsequently read at 450 nm using a microplate reader ([26]). The assay was carried out in triplicate.

[3] = Cell viability assay (CCK-8); conditions: human
Method: as §1, §2

[4] = system: CXCR4; test: qRT-PCR gene expression, CXCR4; conditions: MDA-MB-231 cells, RT-qPCR
Method: (§3) Total ribonucleic acid (RNA) upon treatment with γ-mangostin and α-mangostin was collected from cells using Sepasol (Nacalai Tesque, Japan). The reverse transcription of complementary deoxyribonucleic acid (cDNA) was performed using ReverTra Ace qPCR RT Kit (Toyobo, Japan), which included DNAse I to remove genomic DNA. Quantitative real-time reverse-transcription polymerase chain reaction (qRT-PCR) was performed using the Thunderbird SYBR qPCR Mix (Toyobo, Japan) on a Real-Time PCR System Light Cycler 96 (Roche, USA). Rac, Farp, CXCR4 ([28]), and latrophilin-2 (LPHN2) primers were used, and GAPDH was detected as the internal control.

[5] = system: LPHN2; test: qRT-PCR gene expression, LPHN2; conditions: MDA-MB-231 cells, RT-qPCR
Method: as §3

[6] = system: MDA-MB-231 cells; test: Migration assay (wound healing); conditions: 10 μM, 24 and 42 hours, mitomycin C pretreatment, P < 0.05
Method: A culture-insert 2 well (cat #ib81176) was placed in the well. Then, 5 × 10^4 cells were seeded on each side of the insert. After 24 hours, the medium was discarded and replaced with the fresh medium containing 0.5% FBS, and the cells were cultured for another 18 hours. The next day, the medium was replaced with 10 µg/mL mitomycin C (Wako #139-18711, Japan) and cultured for 2 hours before treatment with 10 μM γ-mangostin and 10 μM α-mangostin. Right after the treatment, the cells were observed under the microscope at 0 hour. At the indicated times (24 and 42 hours), the cell-free area from three parts (i.e., upper, center, and lower scratch) was measured by analyzing the gap closure rate using ImageJ software ([27]).

[7] = system: Farp; test: qRT-PCR gene expression, Farp; conditions: MDA-MB-231 cells, RT-qPCR
Method: as §3

[8] = longer incubation up to 24 hours, P < 0.0001

| IC50 ([2]; Homo sapiens, MDA-MB-231, 24 h) | IC50 [2] | SMILES | amount of ROS induced by γ-mangostin and α-mangostin ([1]; 5 mM NAC for 1 hour before 10 µM mangostin for 24 hours, P < 0.0001) | IC50 ([2]; Homo sapiens) | viability at 24 h, 10 µM ([3]; MDA-MB-231 breast cancer cells, MDA-MB-231 cells, 10 µM concentration, read-out: cell viability) | viability at 24 h ([3]; MDA-MB-231 breast cancer cells, MDA-MB-231 cells, concentration below 10 µM, 24 hours) | expression of CXCR4 (mRNA, normalized with GAPDH) [4] | expression of LPHN2 (mRNA, normalized with GAPDH) [5] | MDA-MB-231 cell migration (gap closure) [6] | ROS accumulation ([1]; after 4 hours) | ROS accumulation [1, 8] | expression of Farp (mRNA, normalized with GAPDH) [7] | viability at 24 h, 10 µM [3] |
| --- | --- | --- | --- | --- | --- | --- | --- | --- | --- | --- | --- | --- | --- |
|  |  | CC(=O)N[C@@H](CS)C(=O)O [NAC, N-acetyl-L-cysteine, reference compound] | reduced |  |  |  |  |  |  |  |  |  |  |
|  |  | COc1c(O)cc2oc3cc(O)c(CC=C(C)C)c(O)c3c(=O)c2c1CC=C(C)C [α-mangostin] |  | 20 µM | 80% | 80 to 90% | did not alter | did not alter | a similar outcome was observed | decreased | started to rise | did not alter |  |
| 25 µM | 18 ± 5 µM | CC(C)=CCc1c(O)cc2oc3cc(O)c(O)c(CC=C(C)C)c3c(=O)c2c1O [γ-mangostin] |  |  |  |  | downregulated | downregulated | effectively inhibited MDA-MB-231 cell migration | decreased | started to rise | downregulated | 80% |
